Data reported in ChEMBL document CHEMBL3885861, “Open TG-GATES”.

Species: Rattus norvegicus
Experiment: Open TG-GATES - Regimen: Single
Assay type: toxicity, organism-based, Sprague-Dawley
Parameters: regimen Single, gender Male, age 6 weeks
Settings: in vivo, po, route gavage; for KIDNEY_L / KIDNEY_R / KIDNEY_TOTAL: tissue Kidney; for LIVER: tissue Liver
[1] = 0 mg/kg, 24 h, tissue Plasma, dose level Control
[2] = 40 mg/kg, 3 h, tissue Blood, dose level Low
[3] = 40 mg/kg, 3 h, tissue Plasma, dose level Low
[4] = 40 mg/kg, 6 h, tissue Blood, dose level Low
[5] = 40 mg/kg, 6 h, tissue Plasma, dose level Low

CCC(C)(C)C(=O)O[C@H]1C[C@@H](C)C=C2C=C[C@H](C)[C@H](CC[C@@H]3C[C@@H](O)CC(=O)O3)[C@H]21 [SIMVASTATIN]
TG [1]: 76.6 mg/dL
TP [1]: 5.5 g/dL
gamma-GTP [1]: 1.6 IU/L
TERMINAL_BW (40 mg/kg, 3 h, dose level Low): 203.4 g
Bas [2]: 0%
Eos [2]: 0.6%
Fbg [2]: 213.2 mg/dL
Hb [2]: 12.4 g/dL
Ht [2]: 37.8%
Lym [2]: 81.6%
MCHC [2]: 32.8%
Mono [2]: 6%
Neu [2]: 12%
PT [2]: 11 s
Plat [2]: 112.7 x10_4/uL
RBC [2]: 568 x10_4/ul
Ret [2]: 10%
WBC [2]: 120.8 x10_2/uL
KIDNEY_L (40 mg/kg, 3 h, dose level Low): 0.9 g
KIDNEY_R (40 mg/kg, 3 h, dose level Low): 0.9 g
KIDNEY_TOTAL (40 mg/kg, 3 h, dose level Low): 1.9 g
LIVER (40 mg/kg, 3 h, dose level Low): 9.7 g
ALP [3]: 793.6 IU/L
ALT [3]: 31.4 IU/L
AST [3]: 61.6 IU/L
BUN [3]: 13.6 mg/dL
CRE [3]: 0.6 mg/dL
Ca [3]: 10.8 mg/dL
DBIL [3]: 0.04 mg/dL
IP [3]: 8.9 mg/dL
K [3]: 4.4 meq/L
LDH [3]: 91.8 IU/L
Na [3]: 137.8 meq/L
PL [3]: 144.6 mg/dL
RALB [3]: 3.8 g/dL
TBIL [3]: 0.3 mg/dL
TC [3]: 77.4 mg/dL
TG [3]: 71.2 mg/dL
TP [3]: 5.6 g/dL
gamma-GTP [3]: 1.4 IU/L
TERMINAL_BW (40 mg/kg, 6 h, dose level Low): 196.1 g
Bas [4]: 0%
Eos [4]: 1%
Fbg [4]: 216.2 mg/dL
Hb [4]: 13.4 g/dL
Ht [4]: 41.2%
Lym [4]: 81.6%
MCH [4]: 21.8 pg
MCHC [4]: 32.6%
Mono [4]: 7.4%
Neu [4]: 10.2%
Plat [4]: 112.9 x10_4/uL
RBC [4]: 615.8 x10_4/ul
Ret [4]: 9.1%
WBC [4]: 93.2 x10_2/uL
KIDNEY_L (40 mg/kg, 6 h, dose level Low): 0.9 g
KIDNEY_R (40 mg/kg, 6 h, dose level Low): 0.9 g
KIDNEY_TOTAL (40 mg/kg, 6 h, dose level Low): 1.8 g
LIVER (40 mg/kg, 6 h, dose level Low): 8.7 g
ALP [5]: 826.8 IU/L
ALT [5]: 32.8 IU/L
AST [5]: 58.6 IU/L
CRE [5]: 0.5 mg/dL
Ca [5]: 10.2 mg/dL
DBIL [5]: 0.08 mg/dL
IP [5]: 9.6 mg/dL
K [5]: 4.4 meq/L
LDH [5]: 98.4 IU/L
Na [5]: 137.6 meq/L
PL [5]: 132.4 mg/dL
RALB [5]: 3.6 g/dL
